Measurements: patent publication US6670446B1, “N1 modified glycopeptides” (Eli Lilly and Company, priority 1998, dated 2003)

Columns and labels:
Type in all cases: cell-based
[1] = tested on: Staphylococcus aureus 489; assay: MIC, standard broth micro-dilution assay, SA 489
Experimental: (§1) The antibacterial efficacy of the present compounds is illustrated by Table III. The minimal inhibitory concentrations (MICs) were determined using a standard broth micro-dilution assay.

[2] = tested on: Staphylococcus aureus SA1199; assay: MIC, standard broth micro-dilution assay, SA 1199
Experimental: as §1

[3] = tested on: Staphylococcus aureus 447; assay: MIC, standard broth micro-dilution assay, SA 447
Experimental: as §1

[4] = tested on: Enterococcus faecalis 2041; assay: MIC, standard broth micro-dilution assay, EF 2041
Experimental: as §1

[5] = tested on: Staphylococcus aureus X400; assay: MIC, standard broth micro-dilution assay, SA X400
Experimental: as §1

[6] = tested on: Enterococcus faecium 180-1; assay: MIC, standard broth micro-dilution assay, EF 180-1
Experimental: as §1

[7] = tested on: Resistant Enterococcus faecium and faecalis; assay: MIC, standard broth micro-dilution assay, Resistant; settings: geometric mean of 4-6 isolates
Experimental: as §1

[8] = tested on: Haemophilus influenzae RD; assay: MIC, standard broth micro-dilution assay, HFRD
Experimental: as §1

[9] = tested on: Staphylococcus aureus S13E
Experimental: as §1

[10] = tested on: Enterococcus faecalis 276; assay: MIC, standard broth micro-dilution assay, EF 276
Experimental: as §1

[11] = tested on: Staphylococcus aureus SA1199A; assay: MIC, standard broth micro-dilution assay, SA 1199A
Experimental: as §1

[12] = tested on: Staphylococcus aureus 446; assay: MIC, standard broth micro-dilution assay, SA 446
Experimental: as §1

[13] = tested on: Staphylococcus aureus X778; assay: MIC, standard broth micro-dilution assay, SA X778
Experimental: as §1

[14] = tested on: Staphylococcus haemolyticus 415; assay: MIC, standard broth micro-dilution assay, SH 415
Experimental: as §1

[15] = tested on: Staphylococcus aureus 491; assay: MIC, standard broth micro-dilution assay, SA 491
Experimental: as §1

[16] = tested on: Staphylococcus haemolyticus 105; assay: MIC, standard broth micro-dilution assay, SH 105
Experimental: as §1

Escherichia coli EC14 = assay: MIC, standard broth micro-dilution assay, EC 14
Experimental: as §1

[17] = tested on: Enterococcus gallinarum 245; assay: MIC, standard broth micro-dilution assay, EG 245
Experimental: as §1

Enterococcus faecium 180 = assay: MIC, standard broth micro-dilution assay, EF 180
Experimental: as §1

[18] = tested on: Staphylococcus epidermidis 270; assay: MIC, standard broth micro-dilution assay, SE 270
Experimental: as §1

[19] = tested on: Sensitive Enterococcus faecium and faecalis; assay: MIC, standard broth micro-dilution assay, Sensitive; settings: geometric mean of 4-6 isolates
Experimental: as §1

Row | Compound | minimal inhibitory concentration (MIC), SA 489 [1] | minimal inhibitory concentration (MIC), SA 1199 [2] | minimal inhibitory concentration (MIC), SA 447 [3] | minimal inhibitory concentration (MIC), EF 2041 [4] | minimal inhibitory concentration (MIC), SA X400 [5] | minimal inhibitory concentration (MIC), EF 180-1 [6] | minimal inhibitory concentration (MIC), Resistant [7] | minimal inhibitory concentration (MIC), HFRD [8] | minimal inhibitory concentration (MIC), SA S13E [9] | minimal inhibitory concentration (MIC), EF 276 [10] | minimal inhibitory concentration (MIC), SA 1199A [11] | minimal inhibitory concentration (MIC), SA 446 [12] | minimal inhibitory concentration (MIC), SA X778 [13] | minimal inhibitory concentration (MIC), SH 415 [14] | minimal inhibitory concentration (MIC), SA 491 [15] | minimal inhibitory concentration (MIC), SH 105 [16] | minimal inhibitory concentration (MIC), EC 14 (Escherichia coli EC14) | minimal inhibitory concentration (MIC), EG 245 [17] | minimal inhibitory concentration (MIC), EF 180 (Enterococcus faecium 180) | minimal inhibitory concentration (MIC), SE 270 [18] | other results
1 | CC1OC(OC2c3ccc(c(Cl)c3)Oc3cc4cc(c3OC3OC(CO)C(O)C(O)C3OC3CC(C)(NCc5ccc(-c6ccccc6)cc5)C(O)C(C)O3)Oc3ccc(cc3Cl)C(O)C(NC(=O)C(CCCCNC(=O)OC(C)(C)C)NC(=O)OC(C)(C)C)C(=O)NC(CC(N)=O)C(=O)NC4C(=O)NC3C(=O)NC2C(=O)NC(C(=O)O)c2cc(O)cc(O)c2-c2cc3ccc2O)CC(C)(N)C1O [Example 19, N^1-(N^1N′-DIBOC-D-lysine) derivative of N^DISACC-(p-phenylbenzyl)desleucylA82846B] | 1 | 2 | 2 | 0.5 | 2 | 1 | 64 | >64 | 2 | 2 | no growth | 2 | 2 | 4 | 1 | 4 | >64 | 2 | 8 | 2 | minimal inhibitory concentration (MIC), Sensitive [19]: 2.6
2 | CC1OC(OC2C(Oc3c4cc5cc3Oc3ccc(cc3Cl)[C@@H](O)[C@@H](NC(=O)[C@@H](Cc3ccc(Cl)cc3)NC(=O)OC(C)(C)C)C(=O)N[C@@H](CC(N)=O)C(=O)N[C@H]5C(=O)N[C@H]3C(=O)NC(C(=O)N[C@H](C(=O)O)c5cc(O)cc(O)c5-c5cc3ccc5O)[C@H](OC3CC(C)(N)C(O)C(C)O3)c3ccc(c(Cl)c3)O4)OC(CO)C(O)C2O)CC(C)(N)C1O (stereo partly drawn) [Example 20, N^1-[N-BOC-D-3-(p-chlorophenyl)alanine] derivative of desleucylA82846B] | ≦.06 | 0.125 | 0.25 | ≦.06 | ≦.06 | 0.25 | >128 | 8 | 0.125 | 0.125 | no growth | 0.5 | 0.25 | 16 | ≦.06 | 8 | >64 | 0.5 | 16 | 0.125 | minimal inhibitory concentration (MIC), Sensitive [19]: 2
3 | CC1OC(OC2c3ccc(c(Cl)c3)Oc3cc4cc(c3OC3OC(CO)C(O)C(O)C3OC3CC(C)(NCc5ccc(-c6ccccc6)cc5)C(O)C(C)O3)Oc3ccc(cc3Cl)C(O)C(NC(=O)C(Cc3ccc(Cl)cc3)NC(=O)OC(C)(C)C)C(=O)NC(CC(N)=O)C(=O)NC4C(=O)NC3C(=O)NC2C(=O)NC(C(=O)O)c2cc(O)cc(O)c2-c2cc3ccc2O)CC(C)(N)C1O [Example 21, N^1-[N-BOC-D-3-(p-chlorophenyl)alanine] derivative of N^DISACC-(p-phenylbenzyl)desleucylA82846B] | 0.25 | 0.5 | 0.5 | 0.5 | 0.5 | 0.5 | 11 | 2 | 0.5 | 1 | no growth | 0.5 | 0.5 | 2 | 0.5 | 2 | >64 | 1 | 1 | 0.5 | minimal inhibitory concentration (MIC), Sensitive [19]: 1.5
